Experimental data published in PMC8037723, “Functional Characterization of an Anthocyanin Dimalonyltransferase in Maize” (Molecules, 2021).

Test system: T1, Aat1
T1 construct: full length, 6x-His-tag in pET-30a(+) (EcoRI/HindIII), E. coli Rosetta-gami 2(DE3)pLysS, Ni-NTA purified
Experiment: UHPLC product quantification at […] nm, Michaelis-Menten fit
Format: biochemical, Zea mays
Conditions: 100 mM potassium phosphate pH 8.0, 30 °C

[1] = acyl donor, 120 µM cyanidin 3-O-glucoside, donor 5-30 µM
[2] = 60 µM malonyl-CoA, substrate 5-120 µM

CC(C)(COP(=O)(O)OP(=O)(O)OC[C@H]1O[C@@H](n2cnc3c(N)ncnc32)[C@H](O)[C@@H]1OP(=O)(O)O)[C@@H](O)C(=O)NCCC(=O)NCCSC(=O)CC(=O)O [Malonyl-CoA]
Km [1]: 40.12 ± 0.04 µM

OC[C@H]1O[C@@H](Oc2cc3c(O)cc(O)cc3[o+]c2-c2ccc(O)cc2)[C@H](O)[C@@H](O)[C@@H]1O [Pelargonidin 3-O-Glucoside]
Km [2]: 8.92 ± 0.41 µM

COc1cc(-c2[o+]c3cc(O)cc(O)c3cc2O[C@@H]2O[C@H](CO)[C@@H](O)[C@H](O)[C@H]2O)ccc1O [Peonidin 3-O-Glucoside]
Km [2]: 5.14 ± 0.93 µM

CC(C)(COP(=O)(O)OP(=O)(O)OC[C@H]1O[C@@H](n2cnc3c(N)ncnc32)[C@H](O)[C@@H]1OP(=O)(O)O)[C@@H](O)C(=O)NCCC(=O)NCCSC(=O)CCC(=O)O [Succinyl-CoA]
Km [1]: 60.09 ± 0.02 µM

OC[C@H]1O[C@@H](Oc2cc3c(O)cc(O)cc3[o+]c2-c2ccc(O)c(O)c2)[C@H](O)[C@@H](O)[C@@H]1O [compound 1, Cyanidin 3-O-Glucoside]
Km [2]: 13.1 ± 0.23 µM

O=C(O)CC(=O)OC[C@H]1O[C@@H](Oc2cc3c(O)cc(O)cc3[o+]c2-c2ccc(O)c(O)c2)[C@H](O)[C@@H](O)[C@@H]1O [compound 2, Cyanidin 3-O-6”-Malonylglucoside]
Km (60 µM malonyl-CoA, substrate 2.5-30 µM, semi-preparative fraction of 91.95% purity): 1.33 ± 3.97 µM
